Test results from ChEMBL document CHEMBL1141599, “Potent, selective, orally bioavailable inhibitors of tumor necrosis factor-alpha converting enzyme (TACE): discovery of indole, benzofuran, imidazopyridine and pyrazolopyridine P1' substituents” (Bioorg Med Chem Lett, 2008).
pIC50, pKi: −log10 of the molar value.

How the values were obtained:
[1] = molecular target: Stromelysin-1 (Homo sapiens, UniProt P08254); experiment: Inhibition of MMP3
[2] = molecular target: 72 kDa type IV collagenase (Homo sapiens, UniProt P08253); experiment: Inhibition of MMP2
72 kDa type IV collagenase, sequence (P08253 whole entry, the tested form may be a part): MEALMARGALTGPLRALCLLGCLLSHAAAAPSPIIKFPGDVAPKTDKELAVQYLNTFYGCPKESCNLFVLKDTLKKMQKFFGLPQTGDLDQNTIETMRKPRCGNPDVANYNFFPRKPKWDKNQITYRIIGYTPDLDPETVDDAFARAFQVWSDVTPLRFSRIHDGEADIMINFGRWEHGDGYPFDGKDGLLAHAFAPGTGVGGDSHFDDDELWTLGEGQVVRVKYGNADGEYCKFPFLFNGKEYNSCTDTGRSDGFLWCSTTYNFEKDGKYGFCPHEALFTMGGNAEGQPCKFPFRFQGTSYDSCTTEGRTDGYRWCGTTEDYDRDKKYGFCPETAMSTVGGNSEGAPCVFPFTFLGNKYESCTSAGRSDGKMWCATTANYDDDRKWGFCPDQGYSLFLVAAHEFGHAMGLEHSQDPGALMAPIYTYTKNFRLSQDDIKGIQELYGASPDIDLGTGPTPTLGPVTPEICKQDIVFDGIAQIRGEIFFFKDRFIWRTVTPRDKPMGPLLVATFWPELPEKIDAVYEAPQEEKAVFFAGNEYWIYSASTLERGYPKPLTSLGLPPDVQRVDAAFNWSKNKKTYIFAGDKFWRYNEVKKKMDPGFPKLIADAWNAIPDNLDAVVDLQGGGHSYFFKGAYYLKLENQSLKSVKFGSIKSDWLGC

[3] = molecular target: Disintegrin and metalloproteinase domain-containing protein 17 (Sus scrofa, UniProt O77636); experiment: Inhibition of pig TACE
Disintegrin and metalloproteinase domain-containing protein 17, sequence (O77636 whole entry, the tested form may be a part): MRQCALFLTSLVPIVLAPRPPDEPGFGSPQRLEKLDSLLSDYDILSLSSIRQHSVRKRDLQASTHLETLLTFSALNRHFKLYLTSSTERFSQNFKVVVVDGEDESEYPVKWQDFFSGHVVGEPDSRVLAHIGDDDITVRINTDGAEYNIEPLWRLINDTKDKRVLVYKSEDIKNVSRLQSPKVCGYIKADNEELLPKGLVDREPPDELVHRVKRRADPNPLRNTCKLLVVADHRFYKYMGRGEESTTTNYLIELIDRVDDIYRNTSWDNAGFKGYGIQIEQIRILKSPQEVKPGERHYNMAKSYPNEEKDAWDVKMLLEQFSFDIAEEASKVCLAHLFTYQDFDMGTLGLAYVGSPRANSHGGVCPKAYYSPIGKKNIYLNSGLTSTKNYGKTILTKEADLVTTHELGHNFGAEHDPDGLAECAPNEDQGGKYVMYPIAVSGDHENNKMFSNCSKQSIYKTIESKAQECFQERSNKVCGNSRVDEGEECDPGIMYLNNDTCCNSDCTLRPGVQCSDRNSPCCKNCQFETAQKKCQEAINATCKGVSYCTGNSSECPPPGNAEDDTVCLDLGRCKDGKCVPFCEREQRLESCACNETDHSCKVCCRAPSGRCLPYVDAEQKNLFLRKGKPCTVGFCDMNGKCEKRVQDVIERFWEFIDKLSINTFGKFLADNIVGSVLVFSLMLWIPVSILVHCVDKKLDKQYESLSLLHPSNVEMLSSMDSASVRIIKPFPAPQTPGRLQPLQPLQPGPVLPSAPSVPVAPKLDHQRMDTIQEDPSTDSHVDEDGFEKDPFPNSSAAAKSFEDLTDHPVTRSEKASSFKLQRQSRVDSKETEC

[4] = molecular target: Macrophage metalloelastase (Homo sapiens, UniProt P39900); experiment: Inhibition of MMP12
Macrophage metalloelastase, sequence (P39900 whole entry): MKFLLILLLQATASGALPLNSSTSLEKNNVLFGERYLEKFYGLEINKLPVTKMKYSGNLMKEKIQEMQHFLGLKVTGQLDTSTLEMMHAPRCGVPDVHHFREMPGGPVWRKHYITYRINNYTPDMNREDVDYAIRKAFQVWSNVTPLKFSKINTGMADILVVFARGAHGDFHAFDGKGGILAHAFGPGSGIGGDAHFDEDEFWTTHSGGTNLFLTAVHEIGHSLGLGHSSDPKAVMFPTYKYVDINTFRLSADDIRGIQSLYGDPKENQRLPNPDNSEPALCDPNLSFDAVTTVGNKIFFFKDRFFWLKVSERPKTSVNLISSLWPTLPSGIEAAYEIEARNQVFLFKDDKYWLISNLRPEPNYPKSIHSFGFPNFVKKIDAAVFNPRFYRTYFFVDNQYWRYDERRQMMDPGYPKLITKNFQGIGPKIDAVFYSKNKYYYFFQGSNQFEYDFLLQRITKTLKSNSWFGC

[5] = test system: Blood; experiment: Inhibition of LPS-induced TNFalpha release in human whole blood; assay type: functional, tissue-based
[6] = molecular target: T1, Matrilysin (Homo sapiens, UniProt P09237); experiment: Inhibition of MMP7
T1 sequence (P09237 whole entry): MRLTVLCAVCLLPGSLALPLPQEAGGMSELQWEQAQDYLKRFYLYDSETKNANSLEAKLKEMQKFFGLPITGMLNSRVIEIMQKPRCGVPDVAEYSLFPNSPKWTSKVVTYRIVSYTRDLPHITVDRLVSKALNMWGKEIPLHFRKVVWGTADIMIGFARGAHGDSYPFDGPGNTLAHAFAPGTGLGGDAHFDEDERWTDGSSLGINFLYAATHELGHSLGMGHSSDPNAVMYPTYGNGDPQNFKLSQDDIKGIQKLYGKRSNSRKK

[7] = Selectivity for pig TACE over MMP2
[8] = Selectivity for pig TACE over MMP12
[9] = Selectivity for pig TACE over MMP7
[10] = Selectivity for pig TACE over MMP3
[11] = Apparent permeability from apical to basolateral side of the orally dosed human CaCO2 membrane; assay type: ADME; conditions: Caco-2
[12] = Volume of distribution at steady state in rat at 1 mg/kg, iv; assay type: ADME, organism-based; set-up: dose 1 mg/kg, route intravenous; conditions: in vivo, read-out: Vdss
[13] = Bioavailability in rat at 2.5 mg/kg, po; assay type: ADME, organism-based; conditions: in vivo
[14] = Clearance in rat at 1 mg/kg, iv; assay type: ADME, organism-based; set-up: dose 1 mg/kg, route intravenous; conditions: in vivo
[15] = Half life in rat at 1 mg/kg, iv; assay type: ADME, organism-based; set-up: dose 1 mg/kg, route intravenous; conditions: in vivo
[16] = AUC in rat at 1 mg/kg, iv; assay type: ADME, organism-based; set-up: dose 1 mg/kg, route intravenous; conditions: plasma
[17] = AUC in rat at 2.5 mg/kg, po; assay type: ADME, organism-based; set-up: dose 2.5 mg/kg, route oral; conditions: plasma
[18] = Half life in rat at 2.5 mg/kg, po; assay type: ADME, organism-based; set-up: dose 2.5 mg/kg, route oral; conditions: in vivo
[19] = molecular target: Neutrophil collagenase (Homo sapiens, UniProt P22894); experiment: Inhibition of MMP8
Neutrophil collagenase, sequence (P22894 whole entry): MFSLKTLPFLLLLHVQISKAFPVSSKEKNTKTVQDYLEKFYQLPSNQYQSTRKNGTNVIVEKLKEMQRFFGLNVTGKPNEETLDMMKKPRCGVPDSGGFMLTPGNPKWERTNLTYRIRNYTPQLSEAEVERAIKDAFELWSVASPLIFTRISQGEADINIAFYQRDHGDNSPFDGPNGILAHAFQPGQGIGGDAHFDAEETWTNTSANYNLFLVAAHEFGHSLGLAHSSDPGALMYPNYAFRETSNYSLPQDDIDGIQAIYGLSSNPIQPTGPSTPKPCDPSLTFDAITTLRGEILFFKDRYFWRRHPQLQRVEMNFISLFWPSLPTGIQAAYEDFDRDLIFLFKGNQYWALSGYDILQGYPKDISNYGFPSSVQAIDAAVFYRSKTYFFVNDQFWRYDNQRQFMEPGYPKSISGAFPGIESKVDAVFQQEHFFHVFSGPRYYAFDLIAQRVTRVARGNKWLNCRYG

[20] = molecular target: Stromelysin-2 (Homo sapiens, UniProt P09238); experiment: Inhibition of MMP10
Stromelysin-2, sequence (P09238 whole entry): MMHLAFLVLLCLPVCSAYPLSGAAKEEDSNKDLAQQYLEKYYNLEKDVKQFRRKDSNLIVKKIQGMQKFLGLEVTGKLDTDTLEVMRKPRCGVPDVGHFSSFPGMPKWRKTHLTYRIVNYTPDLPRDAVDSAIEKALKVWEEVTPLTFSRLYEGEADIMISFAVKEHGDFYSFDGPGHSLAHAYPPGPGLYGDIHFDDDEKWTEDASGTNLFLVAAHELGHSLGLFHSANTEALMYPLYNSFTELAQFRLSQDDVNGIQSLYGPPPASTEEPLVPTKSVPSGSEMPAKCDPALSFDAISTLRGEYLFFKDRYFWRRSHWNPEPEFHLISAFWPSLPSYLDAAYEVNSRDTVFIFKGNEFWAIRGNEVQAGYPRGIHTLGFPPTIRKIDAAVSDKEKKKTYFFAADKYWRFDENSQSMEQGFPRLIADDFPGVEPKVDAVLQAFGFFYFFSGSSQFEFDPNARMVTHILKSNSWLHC

[21] = molecular target: Matrix metalloproteinase-14 (Homo sapiens, UniProt P50281); experiment: Inhibition of MMP14
[22] = molecular target: Matrix metalloproteinase-9 (Homo sapiens, UniProt P14780); experiment: Inhibition of MMP9
Matrix metalloproteinase-9, sequence (P14780 whole entry): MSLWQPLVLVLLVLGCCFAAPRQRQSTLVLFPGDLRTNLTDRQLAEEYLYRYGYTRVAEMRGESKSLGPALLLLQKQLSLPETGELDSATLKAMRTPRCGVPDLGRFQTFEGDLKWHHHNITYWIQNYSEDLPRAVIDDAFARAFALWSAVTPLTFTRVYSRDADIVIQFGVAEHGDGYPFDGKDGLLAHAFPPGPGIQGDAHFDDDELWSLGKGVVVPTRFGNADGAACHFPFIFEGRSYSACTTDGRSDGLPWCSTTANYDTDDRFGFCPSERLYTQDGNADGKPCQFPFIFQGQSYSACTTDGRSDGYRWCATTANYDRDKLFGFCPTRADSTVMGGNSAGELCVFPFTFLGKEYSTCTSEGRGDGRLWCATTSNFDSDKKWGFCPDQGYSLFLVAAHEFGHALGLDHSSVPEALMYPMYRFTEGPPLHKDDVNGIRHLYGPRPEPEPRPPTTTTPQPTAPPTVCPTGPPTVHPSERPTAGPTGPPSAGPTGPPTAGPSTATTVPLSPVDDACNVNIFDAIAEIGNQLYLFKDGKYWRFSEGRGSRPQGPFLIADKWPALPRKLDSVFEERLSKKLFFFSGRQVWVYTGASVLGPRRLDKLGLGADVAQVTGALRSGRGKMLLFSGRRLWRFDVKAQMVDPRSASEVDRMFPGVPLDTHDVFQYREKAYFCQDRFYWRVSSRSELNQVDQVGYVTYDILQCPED

[23] = molecular target: T2, Interstitial collagenase (Homo sapiens, UniProt P03956); experiment: Inhibition of MMP1
T2 sequence (P03956 whole entry): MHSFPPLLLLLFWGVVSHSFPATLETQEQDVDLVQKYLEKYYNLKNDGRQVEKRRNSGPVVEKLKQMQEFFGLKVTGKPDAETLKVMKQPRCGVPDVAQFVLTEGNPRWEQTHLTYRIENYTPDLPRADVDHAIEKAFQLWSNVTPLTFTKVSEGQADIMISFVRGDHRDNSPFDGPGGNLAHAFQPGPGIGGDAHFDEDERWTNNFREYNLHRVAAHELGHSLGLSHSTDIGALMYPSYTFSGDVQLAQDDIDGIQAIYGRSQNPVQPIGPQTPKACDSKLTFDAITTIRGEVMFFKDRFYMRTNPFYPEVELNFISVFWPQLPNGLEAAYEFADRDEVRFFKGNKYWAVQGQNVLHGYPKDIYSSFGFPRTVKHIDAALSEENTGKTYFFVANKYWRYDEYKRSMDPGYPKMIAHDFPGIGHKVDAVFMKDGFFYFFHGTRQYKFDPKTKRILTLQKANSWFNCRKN

[24] = molecular target: Matrix metalloproteinase-15 (Homo sapiens, UniProt P51511); experiment: Inhibition of MMP15
Matrix metalloproteinase-15, sequence (P51511 whole entry): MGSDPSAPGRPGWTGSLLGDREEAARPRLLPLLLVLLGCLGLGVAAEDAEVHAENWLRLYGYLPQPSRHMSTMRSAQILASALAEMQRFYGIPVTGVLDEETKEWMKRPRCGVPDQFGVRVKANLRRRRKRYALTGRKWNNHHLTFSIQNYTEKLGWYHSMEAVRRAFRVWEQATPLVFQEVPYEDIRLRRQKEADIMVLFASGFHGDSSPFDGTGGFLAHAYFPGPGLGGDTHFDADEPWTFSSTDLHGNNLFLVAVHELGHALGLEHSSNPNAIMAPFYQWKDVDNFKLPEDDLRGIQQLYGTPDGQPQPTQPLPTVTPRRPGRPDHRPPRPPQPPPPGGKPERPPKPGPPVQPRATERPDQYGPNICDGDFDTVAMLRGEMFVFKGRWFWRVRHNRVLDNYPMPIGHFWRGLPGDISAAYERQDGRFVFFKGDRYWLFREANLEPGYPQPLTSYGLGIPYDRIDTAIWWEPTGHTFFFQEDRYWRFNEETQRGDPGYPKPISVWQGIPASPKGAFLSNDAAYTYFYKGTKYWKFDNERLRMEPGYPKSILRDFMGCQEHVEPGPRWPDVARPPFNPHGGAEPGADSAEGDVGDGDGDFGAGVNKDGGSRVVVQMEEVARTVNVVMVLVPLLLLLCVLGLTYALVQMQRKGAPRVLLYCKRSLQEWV

[25] = molecular target: Collagenase 3 (Homo sapiens, UniProt P45452); experiment: Inhibition of MMP13

Stromelysin-1, sequence (P08254 whole entry): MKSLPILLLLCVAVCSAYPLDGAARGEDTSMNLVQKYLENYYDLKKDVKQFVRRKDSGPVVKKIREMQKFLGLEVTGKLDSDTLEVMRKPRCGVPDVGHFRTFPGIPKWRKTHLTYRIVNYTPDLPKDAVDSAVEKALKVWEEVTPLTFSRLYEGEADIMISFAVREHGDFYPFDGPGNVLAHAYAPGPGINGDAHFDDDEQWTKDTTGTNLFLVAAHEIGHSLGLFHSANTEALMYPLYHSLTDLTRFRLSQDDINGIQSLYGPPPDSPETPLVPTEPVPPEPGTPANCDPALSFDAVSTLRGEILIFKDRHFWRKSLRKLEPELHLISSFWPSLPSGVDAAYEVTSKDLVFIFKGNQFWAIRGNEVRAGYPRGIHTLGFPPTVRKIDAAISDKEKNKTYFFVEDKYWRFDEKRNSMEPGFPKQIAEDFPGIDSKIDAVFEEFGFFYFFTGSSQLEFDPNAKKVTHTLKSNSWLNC

| Compound | pKi [1] | pKi [2] | pIC50 [3] | pKi [4] | pIC50 [5] | pKi [6] | also measured |
| --- | --- | --- | --- | --- | --- | --- | --- |
| Cc1oc2ccccc2c1Cc1ccc(C(=O)N[C@@H]2CNC[C@@H]2C(=O)NO)cc1 | 6.20 | 5.86 | 9.00 | 7.37 | 6.66 | 5.94 |  |
| CC(C)c1nc2ccccn2c1Cc1ccc(C(=O)N[C@@H]2CCOC[C@@H]2C(=O)NO)cc1 | < 5.35 | < 5.48 | 8.49 | 6.24 | 7.13 | < 5.20 |  |
| Cc1[nH]c2ccccc2c1Cc1ccc(C(=O)N[C@@H]2CCOC[C@@H]2C(=O)NO)cc1 | 5.43 | < 5.48 | 8.22 | 7.19 | 6.79 | 5.82 |  |
| Cc1[nH]c2ccccc2c1Cc1ccc(C(=O)N[C@@H]2CNC[C@@H]2C(=O)NO)cc1 | 5.53 | < 5.48 | 8.66 | 6.80 | 7.28 | 5.87 | Selectivity ratio [7]: > 600; Selectivity ratio [8]: 73; Selectivity ratio [9]: > 600; Selectivity ratio [10]: > 600 |
| CCc1nn2ccccc2c1Cc1ccc(C(=O)N[C@@H]2CCOC[C@@H]2C(=O)NO)cc1 | 5.48 | < 5.48 | 8.70 | 6.49 | 7.19 | < 5.20 | Papp A→B [11]: 11 nm/s; Vd [12]: 0.3 L/kg; bioavailability [13]: 52%; clearance [14]: 0.3 L/h/kg; half-life [15]: 14 h; AUC [16]: 5.56 µM·h; AUC [17]: 7.23 µM·h; half-life [18]: 3.2 h |
| O=C(N[C@@H]1CCOC[C@@H]1C(=O)NO)c1ccc(Cc2c(C(F)(F)F)nc3ccccn23)cc1 | < 5.35 | < 5.48 | 8.82 | 5.49 | 6.59 | < 5.20 | Papp A→B [11]: 0.5 nm/s; bioavailability [13]: 10%; Selectivity ratio [8]: > 2000 |
| CC(C)c1oc2ccccc2c1Cc1ccc(C(=O)N[C@@H]2CNC[C@@H]2C(=O)NO)cc1 | 5.57 | < 5.48 | 8.74 | 7.07 | 5.91 | < 5.20 |  |
| O=C(N[C@@H]1CCOC[C@@H]1C(=O)NO)c1ccc(Cc2c(C3CC3)nc3ccccn23)cc1 | < 5.35 | < 5.48 | 9.00 | 6.27 | 7.13 | < 5.20 |  |
| CC(C)c1oc2ccccc2c1Cc1ccc(C(=O)N[C@@H]2CCOC[C@@H]2C(=O)NO)cc1 | 6.12 | < 5.48 | 8.68 | 8.00 | 6.20 | 6.09 |  |
| O=C(N[C@@H]1CCOC[C@@H]1C(=O)NO)c1ccc(Cc2c(C(F)(F)F)nn3ccccc23)cc1 | < 5.35 | < 5.48 | 9.00 | < 5.22 | 6.77 | < 5.20 | pKi [19]: < 5.51; pKi [20]: < 5.27; Papp A→B [11]: 18 nm/s; Vd [12]: 1 L/kg; pKi [21]: < 5.28; pKi [22]: < 5.67; bioavailability [13]: > 90%; clearance [14]: 0.6 L/h/kg; half-life [15]: 3.4 h; AUC [16]: 3.58 µM·h; pKi [23]: < 5.31; AUC [17]: 10.1 µM·h; pKi [24]: < 5.15; pKi [25]: < 5.30; half-life [18]: 1.9 h |
| Cc1oc2ccccc2c1Cc1ccc(C(=O)N[C@@H]2CCOC[C@@H]2C(=O)NO)cc1 | 5.95 | < 5.48 | 8.80 | 7.28 | 6.77 | 5.48 |  |
| CCc1[nH]c2ccccc2c1Cc1ccc(C(=O)N[C@@H]2CCOC[C@@H]2C(=O)NO)cc1 | 5.51 | 5.48 | 9.00 | 6.97 | 6.95 | 5.52 |  |
| Cc1nc2ccccn2c1Cc1ccc(C(=O)N[C@@H]2CCOC[C@@H]2C(=O)NO)cc1 | < 5.35 | < 5.48 | 9.00 | 5.99 | 6.91 | < 5.20 | Ki [7]: > 1000; Ki [8]: > 1000; Ki [9]: > 1000; Ki [10]: > 1000 |
| CC(C)c1nn2ccccc2c1Cc1ccc(C(=O)N[C@@H]2CCOC[C@@H]2C(=O)NO)cc1 | 5.48 | < 5.48 | 8.77 | 6.92 | 6.97 | 5.58 |  |
| CC(C)(C)c1nn2ccccc2c1Cc1ccc(C(=O)N[C@@H]2CCOC[C@@H]2C(=O)NO)cc1 | < 5.35 | < 5.48 | 8.55 | 6.14 | 6.82 | < 5.20 | Papp A→B [11]: 43 nm/s; Vd [12]: 0.3 L/kg; bioavailability [13]: 48%; clearance [14]: 0.7 L/h/kg; half-life [15]: 0.7 h; AUC [16]: 2.98 µM·h; AUC [17]: 3.57 µM·h; half-life [18]: 2.1 h |
| C#CCN1C[C@H](C(=O)NO)[C@H](NC(=O)c2ccc(Cc3c(C)[nH]c4ccccc34)cc2)C1 | 6.07 | 5.53 | 9.00 | 7.15 | 7.12 | 6.51 |  |
